Data published in US10626144B2, “Peptide derivatives and uses thereof” (Nosopharm, priority 2014, dated 2020).
Numbered stars: 1 amine (or outer) side, 2 acyl side, 3 side chain; on linkers, the order of the positions; unused ones are H or OH. Square brackets hold non-standard residues; d marks the D form. Peptide text beside a SMILES is read from it. * marks the point of attachment. Phe(4-Cl) = N[C@@H](Cc1ccc(Cl)cc1)C(=O)O; Phe(3-F) = N[C@@H](Cc1cccc(F)c1)C(=O)O; Dab(3S-OH) = NC[C@H](O)[C@H](N)C(=O)O; Hyp = O=C(O)[C@@H]1C[C@@H](O)CN1; 3Pal = N[C@@H](Cc1cccnc1)C(=O)O; 4Pal = N[C@@H](Cc1ccncc1)C(=O)O; ΔZArg = N=C(N)NCC/C=C(\N)C(=O)O; Lys(Me) = CNCCCC[C@H](N)C(=O)O; NMeK = CN[C@@H](CCCCN)C(=O)O; X2 = CC=C(N[*:1])C(=O)[*:2]; hLys = NCCCCC[C@H](N)C(=O)O; dOrn = NCCC[C@@H](N)C(=O)O; Pip = O=C(O)[C@@H]1CCCCN1; NMeA = CN[C@@H](C)C(=O)O; Aze = O=C(O)[C@@H]1CCN1; NH(CH2)4NH2 = NCCCCN*

How the values were obtained:
Assay in all cases: MIC, broth microdilution (CLSI), reference strain
Conditions in all cases: CAMHB
[1] = test system: Acinetobacter baumannii ATCC 19606
[2] = test system: Staphylococcus aureus ATCC 13709
[3] = test system: Escherichia coli ATCC 25922
[4] = test system: Pseudomonas aeruginosa ATCC 27853

Compound | Ab: MIC Acinetobacter baumannii ATCC 19606 [1] | Sa: MIC Staphylococcus aureus ATCC 13709 [2] | Ec: MIC Escherichia coli ATCC 25922 [3] | Pa: MIC Pseudomonas aeruginosa ATCC 27853 [4]
CC=C(NC(=O)[C@H](CCCCN)NC(=O)[C@H](Cc1cnc[nH]1)NC(=O)[C@@H]1CCCN1C(=O)[C@@H](CCCN)NC(=O)CNC(=O)[C@H](C)NC(=O)[C@@H](NC(=O)[C@@H](N)CCCCN)[C@@H](O)CN)C(=O)N[C@@H](CCCCN)C(=O)NCCCCN [24.8] (H-K[Dab(3S-OH)]AG[dOrn]PHK[X2]K-{NH(CH2)4NH2}) | − (>32 μg/mL) | ++ (≤8 μg/mL) | + (≤32 μg/mL) | − (>32 μg/mL)
CC(=O)NCCCC[C@H](N)C(=O)N[C@H](C(=O)N[C@@H](C)C(=O)NCC(=O)N[C@H](CCCN)C(=O)N1CCC[C@H]1C(=O)N[C@@H](Cc1cnc[nH]1)C(=O)N[C@@H](CCCCN)C(=O)N/C(=C\CCNC(=N)N)C(=O)N[C@@H](CCCCN)C(=O)NCCCCN)[C@@H](O)CN [24.9] (H-K(Ac)[Dab(3S-OH)]AG[dOrn]PHK[ΔZArg]K-{NH(CH2)4NH2}) | − (>32 μg/mL) | + (≤32 μg/mL) | − (>32 μg/mL) | − (>32 μg/mL)
C[C@H](NC(=O)[C@@H](NC(=O)[C@@H](N)CCCCN)[C@@H](O)CN)C(=O)NCC(=O)N[C@H](CCCN)C(=O)N1CCC[C@H]1C(=O)N[C@@H](Cc1cccnc1)C(=O)N[C@@H](CCCCN)C(=O)N/C(=C\CCNC(=N)N)C(=O)N[C@@H](CCCCN)C(=O)NCCCCN [24.18] (H-K[Dab(3S-OH)]AG[dOrn]P[3Pal]K[ΔZArg]K-{NH(CH2)4NH2}) | − (>32 μg/mL) | ++ (≤8 μg/mL) | ++ (≤8 μg/mL) | − (>32 μg/mL)
C[C@H](NC(=O)[C@@H](NC(=O)[C@@H](N)CCCCN)[C@@H](O)CN)C(=O)NCC(=O)N[C@H](CCCN)C(=O)N1CCC[C@H]1C(=O)N[C@@H](Cc1ccncc1)C(=O)N[C@@H](CCCCN)C(=O)N/C(=C\CCNC(=N)N)C(=O)N[C@@H](CCCCN)C(=O)NCCCCN [24.19] (H-K[Dab(3S-OH)]AG[dOrn]P[4Pal]K[ΔZArg]K-{NH(CH2)4NH2}) | − (>32 μg/mL) | ++ (≤8 μg/mL) | ++ (≤8 μg/mL) | + (≤32 μg/mL)
C[C@H](NC(=O)[C@@H](NC(=O)[C@@H](N)CCCCN)[C@@H](O)CN)C(=O)NCC(=O)N[C@H](CCCN)C(=O)N1CCC[C@H]1C(=O)N[C@@H](CCC(N)=O)C(=O)N[C@@H](CCCCN)C(=O)N/C(=C\CCNC(=N)N)C(=O)N[C@@H](CCCCN)C(=O)NCCCCN [24.21] (H-K[Dab(3S-OH)]AG[dOrn]PQK[ΔZArg]K-{NH(CH2)4NH2}) | − (>32 μg/mL) | ++ (≤8 μg/mL) | ++ (≤8 μg/mL) | − (>32 μg/mL)
CNCCCC[C@H](N)C(=O)N[C@H](C(=O)N[C@@H](C)C(=O)NCC(=O)N[C@H](CCCN)C(=O)N1CCC[C@H]1C(=O)N[C@@H](Cc1cnc[nH]1)C(=O)N[C@@H](CCCCN)C(=O)N/C(=C\CCNC(=N)N)C(=O)N[C@@H](CCCCN)C(=O)NCCCCN)[C@@H](O)CN [24.43] (H-[Lys(Me)][Dab(3S-OH)]AG[dOrn]PHK[ΔZArg]K-{NH(CH2)4NH2}) | − (>32 μg/mL) | ++ (≤8 μg/mL) | ++ (≤8 μg/mL) | + (≤32 μg/mL)
CN[C@@H](CCCCN)C(=O)N[C@H](C(=O)N[C@@H](C)C(=O)NCC(=O)N[C@H](CCCN)C(=O)N1CCC[C@H]1C(=O)N[C@@H](Cc1cnc[nH]1)C(=O)N[C@@H](CCCCN)C(=O)N/C(=C\CCNC(=N)N)C(=O)N[C@@H](CCCCN)C(=O)NCCCCN)[C@@H](O)CN [24.61] (H-[NMeK][Dab(3S-OH)]AG[dOrn]PHK[ΔZArg]K-{NH(CH2)4NH2}) | + (≤32 μg/mL) | ++ (≤8 μg/mL) | ++ (≤8 μg/mL) | + (≤32 μg/mL)
C[C@H](NC(=O)[C@@H](NC(=O)[C@@H](N)CCCCN)[C@@H](O)CN)C(=O)NCC(=O)N[C@H](CCCN)C(=O)N1CCC[C@H]1C(=O)N[C@@H](Cc1cnc[nH]1)C(=O)N[C@@H](CCCCN)C(=O)N/C(=C\CCNC(=N)N)C(=O)N[C@@H](CCCCN)C(=O)O [24.62] (H-K[Dab(3S-OH)]AG[dOrn]PHK[ΔZArg]K-OH) | − (>32 μg/mL) | ++ (≤8 μg/mL) | + (≤32 μg/mL) | − (>32 μg/mL)
CN[C@@H](CCCCN)C(=O)N[C@H](C(=O)N[C@@H](C)C(=O)NCC(=O)N[C@H](CCCN)C(=O)N1CCC[C@H]1C(=O)N[C@@H](Cc1cnc[nH]1)C(=O)N[C@@H](CCCCN)C(=O)N/C(=C\CCNC(=N)N)C(N)=O)[C@@H](O)CN [24.63] (H-[NMeK][Dab(3S-OH)]AG[dOrn]PHK[ΔZArg]-NH2) | − (>32 μg/mL) | ++ (≤8 μg/mL) | ++ (≤8 μg/mL) | − (>32 μg/mL)
CNCCCC[C@H](N)C(=O)N[C@H](C(=O)N[C@@H](C)C(=O)NCC(=O)N[C@H](CCCN)C(=O)N1CCC[C@H]1C(=O)N[C@@H](Cc1cnc[nH]1)C(=O)N[C@@H](CCCCN)C(=O)N/C(=C\CCNC(=N)N)C(N)=O)[C@@H](O)CN [24.64] (H-[Lys(Me)][Dab(3S-OH)]AG[dOrn]PHK[ΔZArg]-NH2) | − (>32 μg/mL) | ++ (≤8 μg/mL) | ++ (≤8 μg/mL) | − (>32 μg/mL)

Other lines, results leading:

Ab: MIC Acinetobacter baumannii ATCC 19606 [1] | Sa: MIC Staphylococcus aureus ATCC 13709 [2] | Ec: MIC Escherichia coli ATCC 25922 [3] | Pa: MIC Pseudomonas aeruginosa ATCC 27853 [4] | Compound
− (>32 μg/mL) | ++ (≤8 μg/mL) | + (≤32 μg/mL) | − (>32 μg/mL) | C[C@H](NC(=O)[C@@H](NC(=O)[C@@H](N)CCCCN)[C@@H](O)CN)C(=O)NCC(=O)N[C@H](CCCN)C(=O)N(C)[C@@H](C)C(=O)N[C@@H](Cc1cnc[nH]1)C(=O)N[C@@H](CCCCN)C(=O)N/C(=C\CCNC(=N)N)C(N)=O [24.65] (H-K[Dab(3S-OH)]AG[dOrn][NMeA]HK[ΔZArg]-NH2)
− (>32 μg/mL) | ++ (≤8 μg/mL) | + (≤32 μg/mL) | − (>32 μg/mL) | C[C@H](NC(=O)[C@@H](NC(=O)[C@@H](N)CCCCN)[C@@H](O)CN)C(=O)NCC(=O)N[C@H](CCCN)C(=O)N1CCC[C@H]1C(=O)N[C@@H](Cc1cnc[nH]1)C(=O)N[C@@H](CCCCN)C(=O)N[C@H](CCCNC(=N)N)C(N)=O [24.68] (H-K[Dab(3S-OH)]AG[dOrn]PHK[dR]-NH2)
− (>32 μg/mL) | ++ (≤8 μg/mL) | + (≤32 μg/mL) | − (>32 μg/mL) | C[C@H](NC(=O)[C@@H](NC(=O)[C@@H](N)CCCCCN)[C@@H](O)CN)C(=O)NCC(=O)N[C@H](CCCN)C(=O)N1CCC[C@H]1C(=O)N[C@@H](Cc1cnc[nH]1)C(=O)N[C@@H](CCCCN)C(=O)N/C(=C\CCNC(=N)N)C(N)=O [24.69] (H-[hLys][Dab(3S-OH)]AG[dOrn]PHK[ΔZArg]-NH2)
− (>32 μg/mL) | + (≤32 μg/mL) | − (>32 μg/mL) | − (>32 μg/mL) | C[C@H](NC(=O)[C@@H](NC(=O)[C@@H](N)CCCCN)[C@@H](O)CN)C(=O)NCC(=O)N[C@H](CCCN)C(=O)N1C[C@H](O)C[C@H]1C(=O)N[C@@H](Cc1cnc[nH]1)C(=O)N[C@@H](CCCCN)C(=O)N/C(=C\CCNC(=N)N)C(=O)O [24.70] (H-K[Dab(3S-OH)]AG[dOrn][Hyp]HK[ΔZArg]-OH)
− (>32 μg/mL) | + (≤32 μg/mL) | + (≤32 μg/mL) | − (>32 μg/mL) | C[C@H](NC(=O)[C@@H](NC(=O)[C@@H](N)CCCCN)[C@@H](O)CN)C(=O)NCC(=O)N[C@H](CCCN)C(=O)N1CC[C@H]1C(=O)N[C@@H](Cc1cccc(F)c1)C(=O)N[C@@H](CCCCN)C(=O)N/C(=C\CCNC(=N)N)C(=O)O [24.71] (H-K[Dab(3S-OH)]AG[dOrn][Aze][Phe(3-F)]K[ΔZArg]-OH)
− (>32 μg/mL) | ++ (≤8 μg/mL) | + (≤32 μg/mL) | − (>32 μg/mL) | C[C@H](NC(=O)[C@@H](NC(=O)[C@@H](N)CCCCN)[C@@H](O)CN)C(=O)NCC(=O)N[C@H](CCCN)C(=O)N1CC[C@H]1C(=O)N[C@@H](Cc1ccc(Cl)cc1)C(=O)N[C@@H](CCCCN)C(=O)N/C(=C\CCNC(=N)N)C(=O)O [24.72] (H-K[Dab(3S-OH)]AG[dOrn][Aze][Phe(4-Cl)]K[ΔZArg]-OH)
− (>32 μg/mL) | + (≤32 μg/mL) | + (≤32 μg/mL) | − (>32 μg/mL) | C[C@H](NC(=O)[C@@H](NC(=O)[C@@H](N)CCCCN)[C@@H](O)CN)C(=O)NCC(=O)N[C@H](CCCN)C(=O)N1CC[C@H]1C(=O)N[C@@H](Cc1cnc[nH]1)C(=O)N[C@@H](CCCCN)C(=O)N/C(=C\CCNC(=N)N)C(=O)O [24.73] (H-K[Dab(3S-OH)]AG[dOrn][Aze]HK[ΔZArg]-OH)
− (>32 μg/mL) | + (≤32 μg/mL) | + (≤32 μg/mL) | − (>32 μg/mL) | C[C@H](NC(=O)[C@@H](NC(=O)[C@@H](N)CCCCN)[C@@H](O)CN)C(=O)NCC(=O)N[C@H](CCCN)C(=O)N1CCCC[C@H]1C(=O)N[C@@H](Cc1cnc[nH]1)C(=O)N[C@@H](CCCCN)C(=O)N/C(=C\CCNC(=N)N)C(=O)O [24.74] (H-K[Dab(3S-OH)]AG[dOrn][Pip]HK[ΔZArg]-OH)
